{"source": "patent US5260197A", "about": "“L-fucose dehydrogenase, a process for production thereof, quantitative assay for L-fucose using said enzyme and a kit for quantitative assay” (Noda Institute for Scientific Research, priority 1988, dated 1993)", "key": {"[1]": {"biological_target": "T1, L-fucose dehydrogenase (L-FDH) (Pseudomonas sp, UniProt Q52472)", "T1 construct": "L-FDH was accumulated in the cell portion; made in house; host or cells: Pseudomonas sp; No. 1143 (FERM BP-2056), the natural producing strain isolated from soil; enzyme purified from its cells, not recombinant", "T1 sequence (Q52472 1-329)": "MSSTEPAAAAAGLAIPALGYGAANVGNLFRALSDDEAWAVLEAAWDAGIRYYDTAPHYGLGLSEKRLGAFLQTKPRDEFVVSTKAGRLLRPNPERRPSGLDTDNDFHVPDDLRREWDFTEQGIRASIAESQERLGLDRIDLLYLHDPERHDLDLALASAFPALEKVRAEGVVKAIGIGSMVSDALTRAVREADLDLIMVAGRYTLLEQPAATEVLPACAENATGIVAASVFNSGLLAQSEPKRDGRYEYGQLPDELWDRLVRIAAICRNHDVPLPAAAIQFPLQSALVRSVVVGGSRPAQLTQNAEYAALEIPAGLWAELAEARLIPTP", "format": "biochemical", "conditions": "for Residual Activity (%): inhibitor or metal salt 2 mM in reaction solution, None = 100", "protocol": "(§1) To 2.5 ml of Tris-imidazole-sodium acetate buffer solution (solution containing 0.12 M each is adjusted to pH of 9.5 with 4 N NaOH) is added 0.2 ml of 15 mM NADP^+ solution After keeping at 37° C. for 5 minutes, 0.1 ml of an enzyme solution is added and 0.2 ml of 150 mM L-fucose solution is further added to the system to initiate the reaction. Immediately thereafter, the reaction mixture is transferred to a cell for measurement of absorbance (1 cm light path) kept at 37° C. and absorbance is measured at the wavelength of 340 nm for 2 minutes or, if necessary, over a longer time period. One unit is an amount of enzyme that produces 1 μmole of NADPH for one minute."}, "[2]": {"biological_target": "T1, L-fucose dehydrogenase (L-FDH)", "test": "L-FDH substrate and coenzyme specificity (determination of activity, NADPH at 340 nm)", "format": "biochemical, Pseudomonas sp. No. 1143", "conditions": "for specificity of the enzyme to substrate sugar (relative activity): L-fucose = 100%, NADP+ as coenzyme; for coenzyme requirement (relative activity): NADP+ = 100%, L-fucose as substrate", "protocol": "As shown in the following reaction equation, the enzyme oxidizes L-fucose to L-fuconolactone in the presence of L-fucose and NADP+ and at the same time reduces NADP^+ to NADPH.\nFurthermore, the enzyme requires NADP^+ (100%) as coenzyme but reacts very little with NAD^+ (1%).\nas §1"}, "[3]": {"test": "Polyacrylamide gel isoelectrofocusing of L-FDH", "format": "physicochemical, Pseudomonas sp. No. 1143"}, "[4]": {"biological_target": "T1, L-fucose dehydrogenase (L-FDH)", "test": "Optimum pH and temperature, pH stability and thermal stability of L-FDH", "format": "biochemical, Pseudomonas sp. No. 1143", "protocol": "By heat treatment at 30° C. for 60 minutes, the enzyme is stable at a pH value of 8.0 to 10.5 but is unstable at a pH value below 6.0.\nas §1"}, "[5]": {"conditions": "metal salts and inhibitors, 2 mM"}}, "note": "Like-named read-outs stand apart in the source and are kept apart here.", "data": [{"molecule": "[Ca+2].[Cl-].[Cl-]", "note": "[CaCl2]", "values": [{"measurement": "inhibition and activation of enzyme activity", "setting": "[1]; [5]", "result": "not observed"}]}, {"molecule": "O=S(=O)([O-])[O-].[Cd+2]", "note": "[CdSO4]", "values": [{"measurement": "Residual Activity (%)", "setting": "[1]", "result": 2, "unit": "%"}]}, {"molecule": "O=S(=O)([O-])[O-].[Cu+2]", "note": "[CuSO4]", "values": [{"measurement": "inhibition and activation of enzyme activity", "setting": "[1]; [5]", "result": "not observed"}]}, {"molecule": "O=C[C@@H](O)[C@H](O)[C@H](O)CO", "note": "[D-arabinose]", "values": [{"measurement": "specificity of the enzyme to substrate sugar (relative activity)", "setting": "[2]", "result": 1, "unit": "%"}]}, {"molecule": "O=C(O)CN(CCN(CC(=O)O)CC(=O)O)CC(=O)O", "note": "[EDTA]", "values": [{"measurement": "inhibition and activation of enzyme activity", "setting": "[1]", "result": "not observed"}]}, {"molecule": "[Cl][Hg][Cl]", "note": "[HgCl2]", "values": [{"measurement": "Residual Activity (%)", "setting": "[1]", "result": 2, "unit": "%"}]}, {"molecule": "NC(=O)CI", "note": "[Iodoacetamide]", "values": [{"measurement": "Residual Activity (%)", "setting": "[1]", "result": 91, "unit": "%"}]}, {"molecule": "C[C@H](O)[C@@H](O)[C@@H](O)[C@H](O)C=O", "note": "[L-fucose]", "values": [{"measurement": "specificity of the enzyme to substrate sugar (relative activity)", "setting": "[2]", "result": 100, "unit": "%"}]}, {"molecule": "O=C[C@@H](O)[C@H](O)[C@H](O)[C@@H](O)CO", "note": "[L-galactose]", "values": [{"measurement": "specificity of the enzyme to substrate sugar (relative activity)", "setting": "[2]", "result": 96, "unit": "%"}]}, {"molecule": "O=S(=O)([O-])[O-].[Mg+2]", "note": "[MgSO4]", "values": [{"measurement": "inhibition and activation of enzyme activity", "setting": "[1]; [5]", "result": "not observed"}]}, {"molecule": "NC(=O)c1ccc[n+]([C@@H]2O[C@H](COP(=O)([O-])OP(=O)(O)OC[C@H]3O[C@@H](n4cnc5c(N)ncnc54)[C@H](OP(=O)(O)O)[C@@H]3O)[C@@H](O)[C@H]2O)c1", "note": "[NADP^+, oxidized nicotinamide adenine dinucleotide phosphate]", "values": [{"measurement": "coenzyme requirement (relative activity)", "setting": "[2]", "result": 100, "unit": "%"}]}, {"molecule": "NC(=O)c1ccc[n+]([C@@H]2O[C@H](COP(=O)([O-])OP(=O)(O)OC[C@H]3O[C@@H](n4cnc5c(N)ncnc54)[C@H](O)[C@@H]3O)[C@@H](O)[C@H]2O)c1", "note": "[NAD^+, nicotinamide adenine dinucleotide]", "values": [{"measurement": "coenzyme requirement (relative activity)", "setting": "[2]", "result": 1, "unit": "%"}]}, {"molecule": "[N-]=[N+]=[N-].[Na+]", "note": "[NaN3]", "values": [{"measurement": "inhibition and activation of enzyme activity", "setting": "[1]; [5]", "result": "not observed"}]}, {"molecule": "O=S(=O)([O-])[O-].[Ni+2]", "note": "[NiSO4]", "values": [{"measurement": "inhibition and activation of enzyme activity", "setting": "[1]; [5]", "result": "not observed"}]}, {"molecule": "O=C(O)c1cc[c]([Hg][Cl])cc1", "note": "[PCMB]", "values": [{"measurement": "Residual Activity (%)", "setting": "[1]", "result": 18, "unit": "%"}]}, {"molecule": "O=S(=O)([O-])[O-].[Zn+2]", "note": "[ZnSO4]", "values": [{"measurement": "Residual Activity (%)", "setting": "[1]", "result": 81, "unit": "%"}]}, {"molecule": "c1cnc2c(c1)ccc1cccnc12", "note": "[o-phenanthroline]", "values": [{"measurement": "inhibition and activation of enzyme activity", "setting": "[1]; [5]", "result": "not observed"}]}, {"molecule": "c1ccc(-c2ccccn2)nc1", "note": "[α,α'-dipyridyl]", "values": [{"measurement": "inhibition and activation of enzyme activity", "setting": "[1]; [5]", "result": "not observed"}]}, {"molecule": "L-fucose dehydrogenase [L-FDH]", "values": [{"measurement": "isoelectric point", "setting": "[3]", "result": 5.2}, {"measurement": "pH at which the enzyme is unstable", "setting": "[4]; heat treatment at 30° C. for 60 minutes", "result": "below 6.0"}, {"measurement": "temperature up to which the enzyme is stable", "setting": "[4]; heat treatment for 10 minutes, FIG. 4", "result": "up to 40 °C"}]}]}
